Results taken from the NIST ThermoML archive (doi:10.1016/j.fluid.2015.05.003).
± gives the expanded uncertainty stated by the source.

Conditions: 298.15 K; 101.33 kPa; Liquid

| Structure (SMILES) | mass density [kg/m3] |
| --- | --- |
| CCCCCC[n+]1ccc2ccccc2c1.N#C[S-] [2-hexylisoquinolinium thiocyanate] | 1081.34 ± 1.2 |
| CCCCCCCC[n+]1ccc2ccccc2c1.N#C[S-] [2-octylisoquinolinium thiocyanate] | 1061.69 ± 1.2 |
